This passage reports Ki results from patent publication US8697696B2, “Triazole compounds II” (Roche Palo Alto LLC, priority 2010, dated 2014).

The target in the experiment is human GABA A α5β3γ2 receptor (Homo sapiens (Human), UniProt P18507+P31644). In words: [3H]flumazenil competition radioligand binding assay, human GABA A α5β3γ2 receptors in HEK293 cells. To be noted: HEK293 cells expressing human receptors (transiently transfected); 0.5 nM [3H]flumazenil; means of two determinations; read-out: hKi GABA Aα5. Here is the method: The ability of compounds present invention to bind to GABA A receptor subtypes was determined by competition for [^3H]flumazenil (85 Ci/mmol; Roche) binding to HEK293 cells expressing rat (stably transfected) or human (transiently transfected) receptors of composition α1β2/3γ2, α2β3γ2, α3β3γ2 and α5β3γ2.
Cell pellets were suspended in Krebs-tris buffer (4.8 mM KCl, 1.2 mM CaCl2, 1.2 mM MgCl2, 120 mM NaCl, 15 mM Tris; pH 7.5; binding assay buffer), homogenized by polytron for ca. 20 sec on ice and centrifuged for 60 min at 4° C. (50000 g; Sorvall, rotor: SM24=20000 rpm). The cell pellets were resuspended in Krebs-tris buffer and homogenized by polytron for ca. 15 sec on ice. Protein was measured (Bradford method, Bio-Rad) and aliquots of 1 mL were prepared and stored at −80° C.
Assays were incubated to equilibrium for 1 hour at 4° C. and harvested onto GF/C uni-filters (Packard) by filtration using a Packard harvester and washing with ice-cold wash buffer (50 mM Tris; pH 7.5). After drying, filter-retained radioactivity was detected by liquid scintillation counting.
Ki values were calculated using Excel-Fit (Microsoft) and are the means of two determinations.
Representative test results, obtained by the above described assay measuring binding affinity to HEK293 cells expressing human (h) receptors, are shown in Table 1 below.

Structures are written as SMILES.

Consider `Cn1nnc(-c2ccc(F)cc2)c1COc1cc(C(=O)NC2CCOCC2)on1` [Example 1, 3-[5-(4-Fluoro-phenyl)-3-methyl-3H-[1,2,3]triazol-4-ylmethoxyl]isoxazole-5-carboxylic acid (tetrahydro-pyran-4-yl)-amide], for which the Ki is 28.8 nM.
Next, `Cn1nc(OCc2c(-c3ccc(F)cc3)nnn2C)cc1C(=O)NC1CCOCC1` [Example 2, 5-[5-(4-Fluoro-phenyl)-3-methyl-3H-[1,2,3]triazol-4-ylmethoxy]-2-methyl-2H-pyrazole-3-carboxylic acid (tetrahydro-pyran-4-yl)-amide]: 45.3 nM.
With `Cc1nnn(-c2ccc(F)cc2)c1COc1cc(C(=O)NC2CCOCC2)n(C)n1` [Example 3, 5-[3-(4-Fluoro-phenyl)-5-methyl-3H-[1,2,3]triazol-4-ylmethoxy]-2-methyl-2H-pyrazole-3-carboxylic acid (tetrahydro-pyran-4-yl)-amide], the Ki was determined as 15.7 nM.
Then `Cc1nnn(-c2ccc(F)cc2)c1COc1cc(C(=O)NN2CCOCC2)n(C)n1` [Example 4, 5-[3-(4-Fluoro-phenyl)-5-methyl-3H-[1,2,3]triazol-4-ylmethoxy]-2-methyl-2H-pyrazole-3-carboxylic acid morpholin-4-ylamide], with 22.2 nM.
Next, `Cc1nnn(-c2ccc(F)cc2)c1COc1cc(C(=O)NC2(C)COC2)n(C)n1` [Example 5, 5-[3-(4-Fluoro-phenyl)-5-methyl-3H-[1,2,3]triazol-4-ylmethoxy]-2-methyl-2H-pyrazole-3-carboxylic acid (3-methyl-oxetan-3-yl)-amide]: 43.2 nM; `Cc1nc(/C=C/c2c(-c3ccc(F)cc3)nnn2C)sc1C(=O)NC(C)C` [Example 6, 2-{(E)-2-[5-(4-Fluoro-phenyl)-3-methyl-3H-[1,2,3]triazol-4-yl]vinyl}-4-methyl-thiazole-5-carboxylic acid isopropylamide]: 11.3 nM.
On to `Cc1nc(/C=C/c2c(C)nnn2-c2ccc(F)cc2)sc1C(=O)NC(C)C` [Example 9, 2-{(E)-2-[3-(4-Fluoro-phenyl)-5-methyl-3H-[1,2,3]triazol-4-yl]-vinyl}-4-methyl-thiazole-5-carboxylic acid isopropylamide], for which the Ki was found to be 6.8 nM.
Then `Cc1nc(/C=C/c2c(-c3ccccn3)nnn2C)sc1C(=O)NC(C)C` [Example 10, 4-Methyl-2-[(E)-2-(3-methyl-5-pyridin-2-yl-3H-[1,2,3]triazol-4-yl)-vinyl]-thiazole-5-carboxylic acid isopropylamide], with 20.7 nM.
